This note sets out measurements from article PMC9040849 (RSC Advances, 2021).

A short description of one series: in vitro. Particulars: human.
Series [1] has as its system influenza A/Puerto Rico/8/34 H1N1 (PR8) virus. Description: microbe, parasite or virus in culture. Format: cell-based. The conditions noted are these: for pIC50: Influenza A virus, H1N1|PR8, A549, 24 h; for SI (selectivity index, ratio of the CC50 to the IC50): A549 cells, PR8.

pIC50: −log10 of the molar value.

For the molecule `COC(=O)Cn1c(C)nc(C#N)c1N` [Compound 4a, Methyl 2-(5-amino-4-cyano-2-methyl-1H-imidazol-1-yl)acetate], in the series “in vitro”, the CC50 amounted to 1.02 µM.

Take `COC(=O)C(C)n1c(C)nc(C#N)c1N` (stereo not shown) [Compound 4b, Methyl 2-(5-amino-4-cyano-2-methyl-1H-imidazol-1-yl)propanoate]: the pIC50 (commonly −log10 of the IC50, conventionally taken in molar units) in series [1] is 6.12. This molecule also had a CC50 in the series “in vitro” of 2.75 µM.

As for `COC(=O)C(C(C)C)n1c(C)nc(C#N)c1N` (stereo not shown) [Compound 4c, Methyl 2-(5-amino-4-cyano-2-methyl-1H-imidazol-1-yl)-3-methylbutanoate], in series [1], the “SI (selectivity index, ratio of the CC50 to the IC50)” value is 0.5 and the pIC50 is 5.62. In “in vitro”, this molecule came in with a CC50 of 1.13 µM.

In turn, `COC(=O)C(CO)n1c(C)nc(C#N)c1N` (stereo not shown) [Compound 4d, Methyl 2-(5-amino-4-cyano-2-methyl-1H-imidazol-1-yl)-3-hydroxypropanoate] had a pIC50 in series [1] of 6.17. The molecule also had a CC50 in the series “in vitro” of 1.99 µM.

`COC(=O)C(Cc1ccccc1)n1c(C)nc(C#N)c1N` (stereo not shown) [Compound 4e, Methyl 2-(5-amino-4-cyano-2-methyl-1H-imidazol-1-yl)-3-phenylpropanoate] had a pIC50 in series [1] of 6.41. This molecule also had a CC50 in the series “in vitro” of 0.84 µM.

On to `COC(=O)C(Cc1ccc(O)cc1)n1c(C)nc(C#N)c1N` (stereo not shown) [Compound 4f, Methyl 2-(5-amino-4-cyano-2-methyl-1H-imidazol-1-yl)-3-(4-hydroxyphenyl)propanoate], for which, in series [1], the “SI (selectivity index, ratio of the CC50 to the IC50)” value is listed as 0.5 and the pIC50 is 5.49. The same molecule yielded a CC50 in the series “in vitro” of 1.45 µM.

`Cc1nc(C#N)c(N)n1CC(=O)O` [Compound 5a, 2-(5-Amino-4-cyano-2-methyl-1H-imidazol-1-yl)acetic acid]: in series [1], the “expression of HA on infected monolayers (RFU % vs untreated infected cells)” value is “decreased” and the negative logarithm of the IC50 (pIC50) is 6.12. The molecule further showed a CC50 in the series “in vitro” of 2.2 µM.

In the case of `Cc1nc(C#N)c(N)n1C(C)C(=O)O` (stereo not shown) [Compound 5b, 2-(5-Amino-4-cyano-2-methyl-1H-imidazol-1-yl)propanoic acid], in series [1], the “SI (selectivity index, ratio of the CC50 to the IC50)” value is reported as 1 and the pIC50 is 5.52. Further, in “in vitro”, the CC50 is 2.91 µM.

As for `Cc1nc(C#N)c(N)n1C(C(=O)O)C(C)C` (stereo not shown) [Compound 5c, 2-(5-Amino-4-cyano-2-methyl-1H-imidazol-1-yl)-3-methylbutanoic acid], in series [1], the “SI (selectivity index, ratio of the CC50 to the IC50)” value is listed as 0.8 and the negative-log IC50 (pIC50) is 6.08. Moreover, the CC50 in “in vitro” is 0.62 µM.

With `Cc1nc(C#N)c(N)n1C(Cc1ccccc1)C(=O)O` (stereo not shown) [Compound 5e, 2-(5-Amino-4-cyano-2-methyl-1H-imidazol-1-yl)-3-phenylpropanoic acid], the pIC50 in series [1] is 6.34. Besides, the CC50 in the series “in vitro” was found to be 3.36 µM.

For `Cc1nc(C#N)c(N)n1C(Cc1ccc(O)cc1)C(=O)O` (stereo not shown) [Compound 5f, 2-(5-Amino-4-cyano-2-methyl-1H-imidazol-1-yl)-3-(4-hydroxyphenyl)propanoic acid], in series [1], the “SI (selectivity index, ratio of the CC50 to the IC50)” value amounted to 0.45 and the negative-log IC50 (pIC50) is 5.70. This molecule also came in with a CC50 in the series “in vitro” of 0.9 µM.

With `COC(=O)Cn1c(C)nc2c(=O)[nH]cnc21` [Compound 6a, Methyl 2-(8-methyl-6-oxo-1,6-dihydro-9H-purin-9-yl)acetate], in series [1], the “SI (selectivity index, ratio of the CC50 to the IC50)” value is 0.3 and the pIC50 was 5.16. The molecule also displayed a CC50 in “in vitro” of 2.11 µM.

The molecule `COC(=O)C(C)n1c(C)nc2c(=O)[nH]cnc21` (stereo not shown) [Compound 6b, Methyl 2-(8-methyl-6-oxo-1,6-dihydro-9H-purin-9-yl)propanoate] registered a CC50 in “in vitro” of 0.47 µM.

`COC(=O)C(C(C)C)n1c(C)nc2c(=O)[nH]cnc21` (stereo not shown) [Compound 6c, Methyl 3-methyl-2-(8-methyl-6-oxo-1,6-dihydro-9H-purin-9-yl)butanoate] showed a negative logarithm of the IC50 (pIC50) in series [1] of 6.74. For the same molecule, in the series “in vitro”, the CC50 is 0.31 µM.

In the series “in vitro”, `COC(=O)C(CO)n1c(C)nc2c(=O)[nH]cnc21` (stereo not shown) [Compound 6d, Methyl 3-hydroxy-2-(8-methyl-6-oxo-1,6-dihydro-9H-purin-9-yl)propanoate] displayed a CC50 of 0.93 µM.

In the case of `COC(=O)C(Cc1ccccc1)n1c(C)nc2c(=O)[nH]cnc21` (stereo not shown) [Compound 6e, Methyl 2-(8-methyl-6-oxo-1,6-dihydro-9H-purin-9-yl)-3-phenylpropanoate], in series [1], the “SI (selectivity index, ratio of the CC50 to the IC50)” value came to 0.3 and the negative logarithm of the IC50 (pIC50) is 5.73. The same molecule showed a CC50 in the series “in vitro” of 0.51 µM.

Molecule `COC(=O)C(Cc1ccc(O)cc1)n1c(C)nc2c(=O)[nH]cnc21` (stereo not shown) [Compound 6f, Methyl 3-(4-hydroxyphenyl)-2-(8-methyl-6-oxo-1,6-dihydro-9H-purin-9-yl)propanoate] had a negative logarithm of the IC50 (pIC50) in series [1] of 6.32. Also, in the series “in vitro”, the CC50 is 0.8 µM.

With `Cc1nc2c(=O)[nH]cnc2n1CC(=O)O` [Compound 7a, 2-(8-Methyl-6-oxo-1,6-dihydro-9H-purin-9-yl)acetic acid], in series [1], the “SI (selectivity index, ratio of the CC50 to the IC50)” value is reported as 0.84 and the pIC50 was 6.05. Further, the CC50 in the series “in vitro” stood at 0.75 µM.

In series [1], `Cc1nc2c(=O)[nH]cnc2n1C(C)C(=O)O` (stereo not shown) [Compound 7b, 2-(8-Methyl-6-oxo-1,6-dihydro-9H-purin-9-yl)propanoic acid] gave a pIC50 of 5.73. In the series “in vitro”, this molecule came in with a CC50 of 2.86 µM.

`Cc1nc2c(=O)[nH]cnc2n1C(C(=O)O)C(C)C` (stereo not shown) [Compound 7c, 3-Methyl-2-(8-methyl-6-oxo-1,6-dihydro-9H-purin-9-yl)butanoic acid]: in series [1], the “expression of HA on infected monolayers (RFU % vs untreated infected cells)” value is on record as “decreased” and the negative logarithm of the IC50 (pIC50) was 6.23. The molecule further showed a CC50 in “in vitro” of 1.09 µM.

For `Cc1nc2c(=O)[nH]cnc2n1C(CO)C(=O)O` (stereo not shown) [Compound 7d, 3-Hydroxy-2-(8-methyl-6-oxo-1,6-dihydro-9H-purin-9-yl)propanoic acid], in “in vitro”, the CC50 turned out to be 6.11 µM.

Regarding `Cc1nc2c(=O)[nH]cnc2n1C(Cc1ccccc1)C(=O)O` (stereo not shown) [Compound 7e, 2-(8-Methyl-6-oxo-1,6-dihydro-9H-purin-9-yl)-3-phenylpropanoic acid], the CC50 in the series “in vitro” turned out to be 6.35 µM.
